Assay results reported in US20090149531A1, “CHEMICAL COMPOSITION DERIVED FROM P-HYDROXYPHENYL PROPIONIC ACID FOR THE TREATMENT OF PSORIASIS” (APOTEKNOS PARA LA PIEL, S.L., priority 2007, published 2009).

How the values were obtained:
[1] = test system: cell hyperproliferation in hairless rats; test: Model of desquamation in hairless rats: corneous material extracted; type: in vivo
Procedure: The activity of compound A on cell hyperproliferation in hairless rats was evaluated using the model of desquamation in hairless rats described in the publication: Bräutigam, M., Hübner, H., Rach, P., Thieroff-Ekerdi, R. “Effects of Calcipotriol (MC 903) and Calcitriol after Topical Application on the Skin of Hairless Rats”, Skin Pharmacol 1992; 5:87-92.
(§1) To do this Calcitriol was used as the reference product at 0.01% and compound A was used as the test product at 1% and 0.1% (100 μg/cm^2 and 10 μg/cm^2, respectively). A Control Group was included, administered only with the vehicle (absolute ethanol).
The animals were randomly distributed into the following experimental groups:
(§2) The treatments were administered topically, once a day for 10 days (100 μg/side/animal). The animals were weighed on a daily basis throughout the study and the grade of erythema was evaluated (0=Absence of erythema, 1=Low grade erythema, 3=High grade erythema). On the last day of the study, day 11, the amount of corneous material extracted from the epidermis of the animals was evaluated.

[2] = Assessment of erythema in the hairless rat study; type: in vivo, hairless rats; conditions: Calcitriol 0.01% topical once a day, 0=absence, 1=low grade, 3=high grade
Procedure: as §1, §2

[3] = Body weight in the hairless rat study; type: in vivo, hairless rats; conditions: Calcitriol 0.01% topical once a day
Procedure: as §1, §2

[4] = Signs of toxicity and deaths in the hairless rat study; type: in vivo
Procedure: A Control Group was included, administered only with the vehicle (absolute ethanol).
as §2

[5] = Calcitriol 0.01% (1 μg/cm^2) topical once a day for 10 days, day 11

For `C=C1/C(=C\C=C2/CCC[C@]3(C)[C@@H]([C@H](C)CCCC(C)(C)O)CC[C@@H]23)C[C@@H](O)C[C@@H]1O` [Calcitriol, 1-alpha,25-dihydroxycholecalciferol, reference compound], the “amount of corneous material extracted, total sum of the right and left flanks, Portal No, 1” value [1, 5] was 13.5 ± 4.89 mg, the “amount of corneous material extracted, total sum of the right and left flanks, Portal No, 2” value [1, 5] was 7.7 ± 1.43 mg and the “amount of corneous material extracted, total sum of the right and left flanks, Portal No, 3” value [1, 5] was 5.9 ± 0.94 mg. For the same compound, the “amount of corneous material extracted, total sum of the right and left flanks, Portal No, 4” value [1, 5] was 4.5 ± 0.60 mg, the “amount of corneous material extracted, total sum of the right and left flanks, Portal No, 5” value [1, 5] was 3.7 ± 0.35 mg and the “amount of corneous material extracted, total sum of the right and left flanks, Portal No, 6” value [1, 5] was 21.7 ± 2.07 mg. For the same compound, the “amount of corneous material extracted compared with the other experimental groups” value ([1]; Calcitriol 0.01%, topical 0.2 ml/animal) was “clearly greater than that extracted in the other experimental groups”, the “Assessment of erythema (mean grade)” value ([2]; Baseline) was 0.0 ± 0.00 and the “Assessment of erythema (mean grade)” value ([2]; Day 2) was 0.0 ± 0.00. For the same compound, the “Assessment of erythema (mean grade)” value ([2]; Day 3) was 0.0 ± 0.00, the “Assessment of erythema (mean grade)” value ([2]; Day 4) was 0.0 ± 0.00 and the “Assessment of erythema (mean grade)” value ([2]; Day 5) was 0.0 ± 0.00. For the same compound, the “Assessment of erythema (mean grade)” value ([2]; Day 6) was 0.0 ± 0.00, the “Assessment of erythema (mean grade)” value ([2]; Day 7) was 0.0 ± 0.00 and the “Assessment of erythema (mean grade)” value ([2]; Day 8) was 1.0 ± 0.00. The “Assessment of erythema (mean grade)” value ([2]; Day 9) was 1.5 ± 0.22, the “Assessment of erythema (mean grade)” value ([2]; Day 10) was 2.0 ± 0.20 and the “Assessment of erythema (mean grade)” value ([2]; Day 11) was 2.0 ± 0.00. The Body weight ([3]; Baseline) was 0.0 ± 0.00 g, the Body weight ([3]; Day 2) was 0.0 ± 0.00 g and the Body weight ([3]; Day 3) was 0.0 ± 0.00 g. For the same compound, the Body weight ([3]; Day 4) was 0.0 ± 0.00 g, the Body weight ([3]; Day 5) was 0.0 ± 0.00 g and the Body weight ([3]; Day 6) was 0.0 ± 0.00 g. The Body weight ([3]; Day 7) was 0.0 ± 0.00 g, the Body weight ([3]; Day 8) was 1.0 ± 0.00 g and the Body weight ([3]; Day 9) was 1.5 ± 0.22 g. The Body weight ([3]; Day 10) was 2.0 ± 0.20 g, the Body weight ([3]; Day 11) was 2.0 ± 0.00 g and the “animals that died before the end of the study” value ([4]; Calcitriol 0.01% group (n 6), repeated administration) was “Three”. For the same compound, the signs of toxicity ([4]; rat, in vivo) was “clear signs of toxicity were detected”.
